Residues, ends and D or L forms follow the SMILES beside them. *: point of attachment. Palmitoyl = CCCCCCCCCCCCCCCC(=O)*
Key:
Type in all cases: cell-based
Collagen IV = assay: ELISA assay of collagen IV synthesis in normal human fibroblast culture supernatants; settings: NHF, 72 h contact, vs excipient control
Procedure: (§1) Normal human fibroblasts (NHF) in culture are brought into contact with the products to be tested or their excipient (negative control) for 72 h. At the end of the contact, the culture supernatants are removed, and the syntheses of the dermal macromolecules are estimated by ELISA assays. An estimate of cell viability is carried out by Hoechst assay to weight the obtained data.

Fibrillin 1 = assay: Immunofluorescence assay of Fibrillin 1 formation by normal human fibroblasts; settings: NHF, five-day incubation, coverage density by image analysis
Procedure: Normal human fibroblasts (NHF) are cultured for at least 24 hours in fibroblast growth medium containing serum. Once confluence was reached, the cells are seeded, and the actives and corresponding controls diluted in a culture medium are added. At the end of a five-day incubation period, the supernatant is removed, the cells are washed with PBS and fixed. The cells are then incubated with the primary Fibrillin 1 monoclonal antibody (11C1.3) (Thermo Fisher) diluted in blocking buffer at a concentration of 1:200. The cells are incubated. The primary antibody is removed, and the cells are washed with PBS. The secondary antibody was added at a dilution of 1:1000 in blocking buffer, then removed and the cells are washed with PBS. The formation of Fibrillin 1 by the cells is visualized using a fluorescence microscope. The obtained images are analyzed using an image processing software assigning a numerical value to the coverage density.

Decorine = assay: ELISA assay of decorin synthesis in normal human fibroblast culture supernatants; settings: NHF, 72 h contact, vs excipient control
Procedure: as §1

Fibronectine = assay: ELISA assay of fibronectin synthesis in normal human fibroblast culture supernatants; settings: NHF, 72 h contact, vs excipient control
Procedure: as §1

Collagen I (PIP) = assay: ELISA assay of collagen I synthesis (PIP assay) in normal human fibroblast culture supernatants; settings: NHF, 72 h contact, vs excipient control, weighted by Hoechst viability
Procedure: as §1
Collagen I is evaluated via the PIP assay (carboxy-terminal propeptide of procollagen type I) which is a peptide fragment resulting from the enzymatic degradation of procollagen when the latter is excreted outside the fibroblast (therefore in the culture medium where the assay is carried out).

Compound	Collagen IV (Collagen IV; concentrations of 5 to 15 ppm)	Fibrillin 1 (significance) (Fibrillin 1; 12.5 ppm)	Decorine (Decorine; concentrations of 5 to 15 ppm)	Fibronectine (Fibronectine; concentrations of 5 to 15 ppm)	Collagen I (PIP) (Collagen I (PIP); concentrations of 5 to 15 ppm)	Collagen IV (Collagen IV; concentrations of 2 to 3 ppm)	Fibrillin 1 (significance) (Fibrillin 1; 2 ppm)	Decorine (Decorine; concentrations of 2 to 3 ppm)	Fibronectine (Fibronectine; concentrations of 2 to 3 ppm)	Collagen I (PIP) (Collagen I (PIP); concentrations of 2 to 3 ppm)
CCCCCCCCCCCCCCCC(=O)N[C@@H](C)C(=O)N[C@H](C(=O)N1CCC[C@H]1C(=O)NCC(=O)O)C(C)C [Pal-AVPG-OH, palmitoyl-alanyl-valyl-prolyl-glycine] (Palmitoyl-AVPG-OH)	+35%	+121% (p < 0.05)	+20%	+38%	+94%	–	–	–	–	–
Pal-VPGA-OH: N-palmitoyl tetrapeptide Val-Pro-Gly-Ala with free C-terminal acid, prepared by the same synthetic process (Palmitoyl-VPGA-OH; SMILES CCCCCCCCCCCCCCCC(=O)N[C@H](C(=O)N1CCC[C@H]1C(=O)NCC(=O)N[C@@H](C)C(=O)O)C(C)C)	–	–	–	–	–	+49%	+92% (p < 0.05)	+69%	+115%	+42%

Source: patent US20230399359A1, “TETRAPEPTIDES, COMPOSITIONS COMPRISING THEM, AND THEIR COSMETIC USE” (Sederma, priority 2020, published 2023)
